# Measurements from ChEMBL document CHEMBL5257032, “Therapeutic potential of coumarins as antiviral agents” (Eur J Med Chem, 2016).
# Several values for one entry are separate records, joined by “and”; a condition that tells them apart may be missing. Equal values may be shown once.
# Tests used:
# [1] = molecular target: T1, Human immunodeficiency virus type 1 protease (Human immunodeficiency virus 1, UniProt Q72874); experiment: Binding affinity to HIV-1 protease assessed as inhibition constant
# [2] = molecular target: Human immunodeficiency virus type 1 reverse transcriptase (Human immunodeficiency virus 1, UniProt Q72547); experiment: Inhibition of HIV1 reverse transcriptase
# [3] = test system: Human immunodeficiency virus 1; experiment: Antiviral activity against HIV-1 infected in human H9 cells; type: functional, organism-based; conditions: Human immunodeficiency virus 1, H9; read-out: EC50
# [4] = molecular target: T1, Human immunodeficiency virus type 1 protease; experiment: (§1) Inhibition of HIV-1 protease
# Hepatitis C virus [5] = experiment: Antiviral activity against HCV assessed as inhibition of RNA replication; type: functional, organism-based, Hepacivirus hominis
# [6] = test system: Human immunodeficiency virus; experiment: Antiviral activity against HIV infected in human H9 cells; type: functional, organism-based; conditions: Human immunodeficiency virus 1, H9; read-out: EC50
# [7] = Binding affinity to HIV protease assessed as inhibition constant; parameters: species or system Human immunodeficiency virus
# [8] = Inhibition of Hepatitis C virus NS5B polymerase; parameters: species or system Hepacivirus hominis
# [9] = test system: Human immunodeficiency virus 1; experiment: Antiviral activity against HIV-1 infected in human Jurkat cells; type: functional, organism-based; conditions: Human immunodeficiency virus 1, Jurkat
# MT4 = experiment: Cytotoxicity against human MT4 cells by MTT assay; type: functional; conditions: read-out: TD50 (the source's name)
# [10] = test system: Human immunodeficiency virus 1; experiment: Antiviral activity against HIV-1 IIIB infected in human MT4 cells; type: functional, organism-based; conditions: Human immunodeficiency virus 1, IIIB
# [11] = test system: Human immunodeficiency virus; experiment: Antiviral activity against HIV; type: functional, organism-based; conditions: Human immunodeficiency virus 1
# Hepatitis C virus [12] = experiment: Antiviral activity against HCV subtype 1b in Huh-5-2 cells; type: functional, organism-based, Hepacivirus hominis
# [13] = test system: Human immunodeficiency virus 1; experiment: Antiviral activity against HIV-1 infected in CEM-SS cells; type: functional, organism-based; conditions: Human immunodeficiency virus 1, CEM-SS
# Hepatitis C virus [14] = experiment: Antiviral activity against HCV assessed as inhibition of HCV RNA replication at 5.0 uM relative to control; type: functional, Hepacivirus hominis; parameters: scale not given: the % may be the effect or the level left
# [15] = Half life in dog; type: ADME, Canis lupus familiaris; conditions: in vivo
# Human alphaherpesvirus 1 = experiment: Antiviral activity against Herpes simplex virus 1; type: functional, organism-based
# [16] = Therapeutic index, ratio of IC50 for cytotoxicity against human H9 cells to EC50 for antiviral activity against HIV-1 infected in H9 cells; type: toxicity, cell-based; conditions: read-out: Ratio IC50/EC50
# [17] = Inhibition of HIV protease; parameters: species or system Human immunodeficiency virus
# [18] = molecular target: Human immunodeficiency virus type 1 protease (Human immunodeficiency virus 1) (UniProt Q72874); experiment: as §1
smiles,measurement,setting,value
CCC(Cc1ccccc1)c1cc(O)c(C(c2cccc(N[C@@H](C)C(=O)OC(C)(C)C)c2)C2CC2)c(=O)o1 (some centres not stated),Ki,[1],0.015 µM
Cc1cc(=O)oc2c3c(c4c(c12)OC(C)(C)C=C4)O[C@H](C)[C@@H](C)[C@@H]3O [(+)-CORDATOLIDE A],IC50,[2],12.3 µM
Cc1c(CO)c(=O)oc2c3c(ccc12)OC(C)(C)[C@H](OC(=O)C12CCC(C)(C(=O)O1)C2(C)C)[C@@H]3OC(=O)[C@@]12CC[C@](C)(C(=O)O1)C2(C)C,EC50,[3],4 nM
O=c1oc(-c2ccccc2)cc(O)c1C(SC1CCCC1)C1CCCC1 (configuration not stated),IC50,[4],0.225 µM
CCCc1cc(=O)oc2c3c(c4c(c12)OC(C)(C)C=C4)O[C@H](C)[C@H](C)[C@@H]3O [CALANOLIDE C],IC50,[2],30 µM
O=c1oc2ccc(Br)cc2cc1CSc1nc2cc(F)ccc2[nH]1,EC50,Hepatitis C virus [5],3.4 µM
CC(C)(O)C(O)COc1c2occc2cc2ccc(=O)oc12 (configuration not stated),EC50,[6],0.115 µg/mL
CCNC(=O)Nc1cccc(C(c2c(O)c3c(oc2=O)CCCCCC3)C2CC2)c1 (configuration not stated),Ki,[7],0.072 µM
O=c1oc2cc(O)c(O)cc2c2oc3cc4c(cc3c12)OCO4,IC50,[8],63.8 µM
COC(C)(C)C(O)COc1c2ccoc2cc2oc(=O)ccc12 (configuration not stated),EC50,[6],33 µg/mL
CCC(c1cccc(NC(=O)CCNC(=O)OC(C)(C)C)c1)c1c(O)c2ccccc2oc1=O (configuration not stated),Ki,[7],0.28 µM
CC(C)=CCc1c(O)c(C(=O)C(C)C)c(O)c2c(-c3ccccc3)cc(=O)oc12 [MESUOL],IC50,[9],2 µM
CCC(c1cccc(NC(=O)CNC(=O)OC(C)(C)C)c1)c1c(O)c2ccccc2oc1=O (configuration not stated),Ki,[7],0.16 µM
Cc1cc(=O)oc2c3c(ccc12)OC(C)(C)[C@H](OC(=O)C12CCC(C)(C(=O)O1)C2(C)C)[C@@H]3OC(=O)[C@@]12CC[C@](C)(C(=O)O1)C2(C)C,EC50,[3],0.00183 nM
CCC(Cc1ccccc1)c1cc(O)c(C(c2cccc(NC(=O)[C@H](Cc3c[nH]cn3)NC(=O)OC(C)(C)C)c2)C2CC2)c(=O)o1 (some centres not stated),CC50,MT4,≥ 30 µM
same,IC50,[10],3 µM
CCC(c1ccccc1)c1c(O)c2ccccc2oc1=O (configuration not stated) [PHENPROCOUMON],Ki,[7],1 µM
same,EC50,[11]; read-out: ED50 (the source's name),100 µM
O=c1oc2ccccc2c(O)c1C(c1ccccc1)c1c(O)c2ccccc2oc1=O,IC50,[4],43 µM
O=c1oc2ccc(Br)cc2cc1CSc1ncc[nH]1,EC50,Hepatitis C virus [12],5.1 µM
CCCC(=O)Nc1cccc(C(c2c(O)c3c(oc2=O)CCCCCC3)C2CC2)c1 (configuration not stated),Ki,[7],0.024 µM
CCCc1cc(=O)oc2c3c(c4c(c12)OC(C)(C)C=C4)O[C@H](C)[C@@H](C)C3=O,IC50,[2],19 µM
same,EC50,[13],1.2 µM
CC(=O)OC[C@H]1O[C@@H](n2c(SCc3cc4cc(Br)ccc4oc3=O)nc3ccccc32)[C@H](OC(C)=O)[C@@H](OC(C)=O)[C@@H]1OC(C)=O,EC50,Hepatitis C virus [5],4.1 µM
same,Activity,Hepatitis C virus [14],90%
CC(C)(C)OC(=O)NCCNc1cccc(C(c2c(O)c3c(oc2=O)CCCCCC3)C2CC2)c1 (configuration not stated),Ki,[7],0.0006 µM and 0.004 µM
same,IC50,[11],1 µM
O=c1ccc2cc3ccoc3cc2o1 [PSORALEN],EC50,[6],0.1 µg/mL
N#Cc1ccc(S(=O)(=O)Nc2cccc(C(c3c(O)c4c(oc3=O)CCCCCC4)C3CC3)c2)cc1 (configuration not stated),Ki,[7],0.0008 µM
same,IC50,[11],1.5 µM
same,half-life,[15],6 h
O=C(O)COc1ccc(-c2cc(O)c(SCCc3ccccc3)c(=O)o2)cc1,IC50,[4],0.16 µM
CC(C)=CCc1c(O)c(C(=O)C(C)C)c2oc(=O)cc(-c3ccccc3)c2c1O [ISOMESUOL],IC50,[9],2 µM
CCC(c1cccc(NC(=O)[C@H](C)NC(=O)OC(C)(C)C)c1)c1c(O)c2ccccc2oc1=O (some centres not stated),Ki,[7],0.17 µM
COc1ccc(/C=N\NC(=O)COc2cc(=O)oc3ccccc23)cc1,MIC,Human alphaherpesvirus 1,200 µg/mL
C/C=C(\C)O[C@@H]1c2c(ccc3ccc(=O)oc23)OC(C)(C)[C@@H]1OC(C)=O,EC50,[3],4600 nM
CC(C)(C)OC(=O)NC(Cc1c[nH]cn1)C(=O)Nc1cccc(C(c2c(O)c3c(oc2=O)CCCCCC3)C2CC2)c1 (configuration not stated),Ki,[7],0.003 µM
O=c1oc2cc(O)ccc2c(O)c1C(c1ccc2ccccc2c1)c1c(O)c2ccc(O)cc2oc1=O,IC50,[4],4.2 µM
CC1(C)Oc2ccc3ccc(=O)oc3c2[C@@H](OC(=O)[C@@]23CC[C@](C)(C(=O)O2)C3(C)C)[C@H]1OC(=O)C12CCC(C)(C(=O)O1)C2(C)C,EC50,[3],0.256 nM
same,selectivity ratio,[16],137000
O=c1oc2c(c(O)c1C(c1ccccc1)C1CC1)CCCCCC2 (configuration not stated),Ki,[7],0.015 µM
same,IC50,[17],57 µM
COc1cc(O)c2c(c1)oc(=O)c1c3cc(O)c(O)cc3oc21 [WEDELOLACTONE],IC50,[8],36.1 µM
CCCCCCc1cc2c(O)c(C(c3ccccc3)c3c(O)c4cc(CCCCCC)c(O)cc4oc3=O)c(=O)oc2cc1O,ID50,[18],0.32 µM
O=c1oc2ccccc2c(O)c1C(c1ccc(C(c2c(O)c3ccccc3oc2=O)c2c(O)c3ccccc3oc2=O)cc1)c1c(O)c2ccccc2oc1=O,ID50,[18],1.7 µM
same,IC50,[4],11.5 µM
CC1(C)C=Cc2c(ccc3ccc(=O)oc23)O1 [SESALIN],EC50,[3],3500 nM
